Source: patent US9765075B2, “Substituted bridged urea analogs as sirtuin modulators” (GLAXOSMITHKLINE LLC, priority 2013, dated 2017)
Read-outs that look alike come from different tables or passages of the source.

Molecular target: T1, SIRT1 (Homo sapiens, UniProt Q96EB6)
T1 sequence (Q96EB6 1-747): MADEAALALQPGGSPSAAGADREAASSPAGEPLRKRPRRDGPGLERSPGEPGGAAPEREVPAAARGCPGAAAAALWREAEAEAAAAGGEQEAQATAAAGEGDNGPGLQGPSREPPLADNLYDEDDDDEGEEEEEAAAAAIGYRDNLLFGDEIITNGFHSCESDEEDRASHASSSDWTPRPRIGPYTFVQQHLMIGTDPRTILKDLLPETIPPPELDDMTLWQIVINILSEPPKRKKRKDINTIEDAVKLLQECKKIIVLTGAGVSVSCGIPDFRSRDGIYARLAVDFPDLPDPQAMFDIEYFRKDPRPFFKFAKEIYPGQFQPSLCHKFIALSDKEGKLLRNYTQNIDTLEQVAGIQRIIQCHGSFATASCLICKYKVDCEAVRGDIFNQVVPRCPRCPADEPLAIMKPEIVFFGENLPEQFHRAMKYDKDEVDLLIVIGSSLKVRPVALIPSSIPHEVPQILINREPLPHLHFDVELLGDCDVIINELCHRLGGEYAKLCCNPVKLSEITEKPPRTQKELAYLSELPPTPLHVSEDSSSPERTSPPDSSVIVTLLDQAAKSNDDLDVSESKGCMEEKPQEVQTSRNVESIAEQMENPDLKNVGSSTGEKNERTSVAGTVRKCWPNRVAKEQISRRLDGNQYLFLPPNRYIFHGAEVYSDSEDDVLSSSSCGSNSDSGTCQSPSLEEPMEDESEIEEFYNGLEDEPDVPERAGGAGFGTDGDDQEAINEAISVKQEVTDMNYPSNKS
Assay: Trp mass spectrometry assay (SIRT1 activation)
Assay type: biochemical
Conditions: for Emax: percent maximum fold activation of SIRT1, read-out: Tryp % Fold Act
Summary of the method: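 N-His-tagged SIRT1 (10 nM), expressed in E. coli, was incubated with 0.5 μM Ac-RHKK(Ac)W-NH2 peptide and 120 μM NAD+ for 25 min at 25 °C in HEPES pH 7.5 with […]. The reaction was stopped with formic acid and O-acetyl-ADP-ribose or deacetylated peptide was quantified by mass spectrometry. Results are given as EC1.5 and percent maximal activation relative to DMSO control.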

[1] = concentration of test compound that results in 150% activation of SIRT1, Trp peptide substrate
[2] = Trp mass spectrometry assay, EC1.5 = concentration giving 150% activation of SIRT1

| Tryp AVG EC1.5 (μM) [1] | Emax (Trp peptide substrate) [%] | Tryp AVG EC1.5 (μM) [2] | Emax (Trp mass spectrometry assay) [%] | SMILES |
| --- | --- | --- | --- | --- |
| B (EC1.5 1-25 μM) | ≥ 150 | – | – | O=C(NCCN1CCOCC1)N1c2nc(-c3cccc(C(F)(F)F)c3)ccc2N2CC[C@H]1C2 [Example 616] |
| A (EC1.5<1 μM) | ≥ 150 | – | – | O=C(Nc1cccc(C(F)(F)F)c1)N1c2nc(-c3cccc(C(F)(F)F)c3)ccc2N2CC[C@H]1C2 [Example 617] |
| B (EC1.5 1-25 μM) | ≥ 150 | – | – | O=C(Nc1cccc(-c2ccc(C(F)(F)F)cn2)c1)N1c2nc(-c3cccc(C(F)(F)F)c3)ccc2N2CC[C@H]1C2 [Example 618] |
| C (EC1.5>25 μM) | < 150 | – | – | Cc1ccc(-c2cccc(NC(=O)N3c4nc(-c5cccc(C(F)(F)F)c5)ccc4N4CC[C@H]3C4)c2)cc1C [Example 619] |
| B (EC1.5 1-25 μM) | ≥ 150 | – | – | O=C1CN2C[C@H]1N(C(=O)Nc1ccccn1)c1nc(-c3cccc(C(F)(F)F)c3)ccc12 [Example 620] |
| A (EC1.5<1 μM) | ≥ 150 | – | – | Cn1nccc1-c1cccc(NC(=O)N2c3nc(-c4cccc(C(F)(F)F)c4)ccc3N3CC[C@H]2C3)n1 [Example 623] |
| B (EC1.5 1-25 μM) | ≥ 150 | – | – | O=C(Nc1ccc2c(c1)CCC2)N1c2nc(-c3cccc(C(F)(F)F)c3)ccc2N2CC[C@H]1C2 [Example 624] |
| – | – | A (EC1.5<1 μM) | ≥ 150 | O=C(Nc1cccc(-c2ccccc2)c1)N1c2nc(-c3cccc(C(F)(F)F)c3)ccc2N2CC[C@H]1C2 [Example 625] |
| – | – | A (EC1.5<1 μM) | ≥ 150 | COC(=O)c1cccc(NC(=O)N2c3nc(-c4cccc(C(F)(F)F)c4)ccc3N3CC[C@H]2C3)c1 [Example 626] |
| – | – | B (EC1.5 1-25 μM) | ≥ 150 | O=C(NCCCn1ccnc1)N1c2nc(-c3cccc(C(F)(F)F)c3)ccc2N2CC[C@H]1C2 [Example 627] |
| – | – | B (EC1.5 1-25 μM) | ≥ 150 | O=C(Nc1ccc(N2CCCCC2)cc1)N1c2nc(-c3cccc(C(F)(F)F)c3)ccc2N2CC[C@H]1C2 [Example 628] |
| – | – | A (EC1.5<1 μM) | ≥ 150 | O=C(Nc1cccc(CN2CCOCC2)c1)N1c2nc(-c3cccc(C(F)(F)F)c3)ccc2N2CC[C@H]1C2 [Example 629] |
| – | – | A (EC1.5<1 μM) | ≥ 150 | O=C(Nc1cncc(F)c1)N1c2nc(-c3cccc(C(F)(F)F)c3)ccc2N2C[C@@H](O)[C@H]1C2 [Example 630] |
| – | – | B (EC1.5 1-25 μM) | ≥ 150 | O=C(Nc1cccnn1)N1c2nc(-c3cccc(C(F)(F)F)c3)ccc2N2C[C@@H](O)[C@H]1C2 [Example 631] |
| – | – | C (EC1.5>25 μM) | ≥ 150 | Cc1nccn1CCCNC(=O)N1c2nc(-c3cccc(C(F)(F)F)c3)ccc2N2CC[C@H]1C2 [Example 632] |
| – | – | B (EC1.5 1-25 μM) | ≥ 150 | O=C(NCCCc1ccncc1)N1c2nc(-c3cccc(C(F)(F)F)c3)ccc2N2CC[C@H]1C2 [Example 633] |
| – | – | C (EC1.5>25 μM) | < 150 | CC(=O)O[C@H]1CN2C[C@H]1N(C(=O)Nc1ccccn1)c1nc(-c3cccc(C(F)(F)F)c3)ccc12 [Example 634] |
| – | – | A (EC1.5<1 μM) | ≥ 150 | CC(=O)N1CCC(c2cccc(NC(=O)N3c4nc(-c5cccc(C(F)(F)F)c5)ccc4N4CC[C@H]3C4)c2)C1 (stereo partly drawn) [Example 635] |
| – | – | A (EC1.5<1 μM) | ≥ 150 | CCC(=O)N1CCC(c2cccc(NC(=O)N3c4nc(-c5cccc(C(F)(F)F)c5)ccc4N4CC[C@H]3C4)c2)C1 (stereo partly drawn) [Example 636] |
| – | – | A (EC1.5<1 μM) | ≥ 150 | O=C(C1CC1)N1CCC(c2cccc(NC(=O)N3c4nc(-c5cccc(C(F)(F)F)c5)ccc4N4CC[C@H]3C4)c2)C1 (stereo partly drawn) [Example 637] |
| – | – | A (EC1.5<1 μM) | ≥ 150 | CC(C)(C)OC(=O)NCc1cnnn1-c1cccc(NC(=O)N2c3nc(-c4cccc(C(F)(F)F)c4)ccc3N3CC[C@H]2C3)c1 [Example 638] |
| – | – | A (EC1.5<1 μM) | ≥ 150 | NCCCCCC(=O)NCc1cn(-c2cccc(NC(=O)N3c4nc(-c5cccc(C(F)(F)F)c5)ccc4N4CC[C@H]3C4)c2)nn1 [Example 639] |
| – | – | A (EC1.5<1 μM) | ≥ 150 | NCc1cnnn1-c1cccc(NC(=O)N2c3nc(-c4cccc(C(F)(F)F)c4)ccc3N3CC[C@H]2C3)c1 [Example 640] |

| Tryp AVG EC1.5 (μM) [1] | Emax (Trp peptide substrate) [%] | Tryp AVG EC1.5 (μM) [2] | Emax (Trp mass spectrometry assay) [%] | SMILES |
| --- | --- | --- | --- | --- |
| – | – | C (EC1.5>25 μM) | < 150 | O=C(Nc1ccc(Oc2ccccc2)cc1)N1c2nc(-c3cccc(C(F)(F)F)c3)ccc2N2CC[C@H]1C2 [Example 641] |
| – | – | A (EC1.5<1 μM) | ≥ 150 | CS(=O)(=O)Nc1cccc(NC(=O)N2c3nc(-c4cccc(C(F)(F)F)c4)ccc3N3CC[C@H]2C3)c1 [Example 642] |
| – | – | A (EC1.5<1 μM) | ≥ 150 | NS(=O)(=O)c1ccc(NC(=O)N2c3nc(-c4cccc(C(F)(F)F)c4)ccc3N3CC[C@H]2C3)cc1 [Example 643] |
| – | – | B (EC1.5 1-25 μM) | ≥ 150 | COc1cc(NC(=O)N2c3nc(-c4cccc(C(F)(F)F)c4)ccc3N3C[C@@H](O)[C@H]2C3)ncn1 [Example 644] |
| – | – | A (EC1.5<1 μM) | ≥ 150 | O=C(Nc1cnccn1)N1c2nc(-c3cccc(C(F)(F)F)c3)ccc2N2C[C@@H](O)[C@H]1C2 [Example 645] |
| – | – | A (EC1.5<1 μM) | ≥ 150 | O=C(Nc1nncs1)N1c2nc(-c3cccc(C(F)(F)F)c3)ccc2N2CC[C@H]1C2 [Example 646] |
| – | – | A (EC1.5<1 μM) | ≥ 150 | CCc1nnc(NC(=O)N2c3nc(-c4cccc(C(F)(F)F)c4)ccc3N3CC[C@H]2C3)s1 [Example 647] |
| – | – | A (EC1.5<1 μM) | ≥ 150 | O=C(Nc1nnc(-c2ccccc2)s1)N1c2nc(-c3cccc(C(F)(F)F)c3)ccc2N2CC[C@H]1C2 [Example 648] |
| – | – | B (EC1.5 1-25 μM) | ≥ 150 | CC(C)(C)c1nnc(NC(=O)N2c3nc(-c4cccc(C(F)(F)F)c4)ccc3N3CC[C@H]2C3)s1 [Example 649] |
| – | – | C (EC1.5>25 μM) | < 150 | O=C(Nc1nnc(C(F)(F)F)s1)N1c2nc(-c3cccc(C(F)(F)F)c3)ccc2N2CC[C@H]1C2 [Example 650] |
| – | – | A (EC1.5<1 μM) | ≥ 150 | O=C(Nc1nnc(-c2cccnc2)s1)N1c2nc(-c3cccc(C(F)(F)F)c3)ccc2N2CC[C@H]1C2 [Example 651] |
| – | – | A (EC1.5<1 μM) | ≥ 150 | O=C(Nc1cccc(Br)n1)N1c2nc(-c3cccc(C(F)(F)F)c3)ccc2N2CC[C@H]1C2 [Example 652] |
| – | – | A (EC1.5<1 μM) | ≥ 150 | O=C(Nc1cccc(-c2ccsc2)n1)N1c2nc(-c3cccc(C(F)(F)F)c3)ccc2N2CC[C@H]1C2 [Example 653] |
| – | – | A (EC1.5<1 μM) | ≥ 150 | O=C(Nc1cccc(-c2ccoc2)n1)N1c2nc(-c3cccc(C(F)(F)F)c3)ccc2N2CC[C@H]1C2 [Example 654] |
| – | – | A (EC1.5<1 μM) | ≥ 150 | O=C(Nc1cccc(-c2cccnc2)n1)N1c2nc(-c3cccc(C(F)(F)F)c3)ccc2N2CC[C@H]1C2 [Example 655] |
| – | – | A (EC1.5<1 μM) | ≥ 150 | CCCn1cc(-c2cccc(NC(=O)N3c4nc(-c5cccc(C(F)(F)F)c5)ccc4N4CC[C@H]3C4)n2)cn1 [Example 656] |
| – | – | A (EC1.5<1 μM) | ≥ 150 | Cc1noc(C)c1-c1cccc(NC(=O)N2c3nc(-c4cccc(C(F)(F)F)c4)ccc3N3CC[C@H]2C3)n1 [Example 657] |
| – | – | A (EC1.5<1 μM) | ≥ 150 | O=C(Nc1cccc(C2=CCOCC2)n1)N1c2nc(-c3cccc(C(F)(F)F)c3)ccc2N2CC[C@H]1C2 [Example 658] |
| – | – | A (EC1.5<1 μM) | ≥ 150 | NC(=O)c1ccc(NC(=O)N2c3nc(-c4cccc(C(F)(F)F)c4)ccc3N3CC[C@H]2C3)cc1 [Example 659] |
| – | – | A (EC1.5<1 μM) | ≥ 150 | O=C(Nc1cccc(-c2cccnc2)c1)N1c2nc(-c3cccc(C(F)(F)F)c3)ccc2N2CC[C@H]1C2 [Example 660] |
| – | – | C (EC1.5>25 μM) | ≥ 150 | O=C(NCCn1ccnc1)N1c2nc(-c3cccc(C(F)(F)F)c3)ccc2N2CC[C@H]1C2 [Example 661] |
| – | – | B (EC1.5 1-25 μM) | ≥ 150 | O=C(Nc1cc(-c2cnco2)ccn1)N1c2nc(-c3cccc(C(F)(F)F)c3)ccc2N2C[C@@H](O)[C@H]1C2 [Example 662] |
